According to patent US20120270237A9, “METHODS FOR THE IDENTIFICATION OF KINASE INTERACTING MOLECULES AND FOR THE PURIFICATION OF KINASE PROTEINS” (Cellzone AG, priority 2009, published 2012):

How the values were obtained:
Test in all cases: Kinobeads competition binding, HeLa Placenta lysate mix
Design in all cases: endogenous in cells
Conditions in all cases: 10 μM free compound
IRAK4 = biological target: T1, IRAK4 (Homo sapiens, UniProt Q9NWZ3)
T1 sequence (Q9NWZ3 1-460): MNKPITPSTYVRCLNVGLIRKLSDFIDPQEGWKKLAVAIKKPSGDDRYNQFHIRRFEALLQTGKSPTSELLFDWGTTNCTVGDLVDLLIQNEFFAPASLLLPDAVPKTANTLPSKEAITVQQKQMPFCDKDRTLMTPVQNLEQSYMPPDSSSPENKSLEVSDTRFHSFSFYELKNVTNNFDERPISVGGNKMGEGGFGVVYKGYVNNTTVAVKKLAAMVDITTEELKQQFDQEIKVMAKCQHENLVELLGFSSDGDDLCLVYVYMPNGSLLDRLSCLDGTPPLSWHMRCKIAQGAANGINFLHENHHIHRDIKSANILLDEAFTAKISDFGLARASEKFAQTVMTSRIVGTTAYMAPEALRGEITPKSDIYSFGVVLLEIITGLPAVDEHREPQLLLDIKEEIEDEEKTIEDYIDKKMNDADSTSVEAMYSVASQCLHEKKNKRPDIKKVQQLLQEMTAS
Procedure, shortened: (§1)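 Read-out is iTRAQ reporter ion quantification by nano-LC-MS/MS, comparing a lysate aliquot pretreated with 10 μM free compound to a DMSO solvent control. Kinases not bound by free compound were pulled down on beads carrying the immobilized compound, separated by SDS-PAGE and digested with trypsin.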

FER = FER (Homo sapiens, UniProt P16591)
FER, sequence (P16591 whole entry): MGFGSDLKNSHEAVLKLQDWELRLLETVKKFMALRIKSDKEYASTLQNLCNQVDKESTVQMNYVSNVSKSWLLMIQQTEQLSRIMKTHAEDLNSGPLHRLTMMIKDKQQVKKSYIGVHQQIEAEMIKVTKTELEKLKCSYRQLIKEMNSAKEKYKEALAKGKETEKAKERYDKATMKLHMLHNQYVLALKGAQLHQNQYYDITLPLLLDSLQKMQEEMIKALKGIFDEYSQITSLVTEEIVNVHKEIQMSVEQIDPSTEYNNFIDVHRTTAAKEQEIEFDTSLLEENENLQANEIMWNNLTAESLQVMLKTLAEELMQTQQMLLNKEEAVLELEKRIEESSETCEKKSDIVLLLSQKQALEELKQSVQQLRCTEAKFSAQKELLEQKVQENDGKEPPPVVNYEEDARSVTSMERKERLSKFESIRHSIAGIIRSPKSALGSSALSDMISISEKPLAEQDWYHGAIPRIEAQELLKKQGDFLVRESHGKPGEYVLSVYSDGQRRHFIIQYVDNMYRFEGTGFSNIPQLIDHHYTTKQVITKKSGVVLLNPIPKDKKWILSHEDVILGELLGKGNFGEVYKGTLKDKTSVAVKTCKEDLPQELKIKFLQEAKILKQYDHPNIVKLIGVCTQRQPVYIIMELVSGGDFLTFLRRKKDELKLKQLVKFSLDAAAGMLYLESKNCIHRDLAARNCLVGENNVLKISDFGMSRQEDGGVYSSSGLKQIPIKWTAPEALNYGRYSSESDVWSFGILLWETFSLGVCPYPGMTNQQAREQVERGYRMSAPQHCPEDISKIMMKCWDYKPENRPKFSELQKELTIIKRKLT
Procedure, shortened: as §1

MAP2K6 = MAP2K6 (Homo sapiens, UniProt P52564)
MAP2K6, sequence (P52564 whole entry): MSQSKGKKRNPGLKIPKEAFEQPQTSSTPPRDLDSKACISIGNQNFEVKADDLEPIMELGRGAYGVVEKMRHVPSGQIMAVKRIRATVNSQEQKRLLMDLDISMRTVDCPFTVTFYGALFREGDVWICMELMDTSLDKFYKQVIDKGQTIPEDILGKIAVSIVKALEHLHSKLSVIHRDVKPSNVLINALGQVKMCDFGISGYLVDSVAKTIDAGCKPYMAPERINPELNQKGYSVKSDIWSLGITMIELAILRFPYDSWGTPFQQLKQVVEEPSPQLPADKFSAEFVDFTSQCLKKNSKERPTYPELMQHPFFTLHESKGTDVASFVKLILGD
Procedure, shortened: as §1

AAK1 = AAK1 (Homo sapiens, UniProt Q2M2I8)
AAK1, sequence (Q2M2I8 whole entry): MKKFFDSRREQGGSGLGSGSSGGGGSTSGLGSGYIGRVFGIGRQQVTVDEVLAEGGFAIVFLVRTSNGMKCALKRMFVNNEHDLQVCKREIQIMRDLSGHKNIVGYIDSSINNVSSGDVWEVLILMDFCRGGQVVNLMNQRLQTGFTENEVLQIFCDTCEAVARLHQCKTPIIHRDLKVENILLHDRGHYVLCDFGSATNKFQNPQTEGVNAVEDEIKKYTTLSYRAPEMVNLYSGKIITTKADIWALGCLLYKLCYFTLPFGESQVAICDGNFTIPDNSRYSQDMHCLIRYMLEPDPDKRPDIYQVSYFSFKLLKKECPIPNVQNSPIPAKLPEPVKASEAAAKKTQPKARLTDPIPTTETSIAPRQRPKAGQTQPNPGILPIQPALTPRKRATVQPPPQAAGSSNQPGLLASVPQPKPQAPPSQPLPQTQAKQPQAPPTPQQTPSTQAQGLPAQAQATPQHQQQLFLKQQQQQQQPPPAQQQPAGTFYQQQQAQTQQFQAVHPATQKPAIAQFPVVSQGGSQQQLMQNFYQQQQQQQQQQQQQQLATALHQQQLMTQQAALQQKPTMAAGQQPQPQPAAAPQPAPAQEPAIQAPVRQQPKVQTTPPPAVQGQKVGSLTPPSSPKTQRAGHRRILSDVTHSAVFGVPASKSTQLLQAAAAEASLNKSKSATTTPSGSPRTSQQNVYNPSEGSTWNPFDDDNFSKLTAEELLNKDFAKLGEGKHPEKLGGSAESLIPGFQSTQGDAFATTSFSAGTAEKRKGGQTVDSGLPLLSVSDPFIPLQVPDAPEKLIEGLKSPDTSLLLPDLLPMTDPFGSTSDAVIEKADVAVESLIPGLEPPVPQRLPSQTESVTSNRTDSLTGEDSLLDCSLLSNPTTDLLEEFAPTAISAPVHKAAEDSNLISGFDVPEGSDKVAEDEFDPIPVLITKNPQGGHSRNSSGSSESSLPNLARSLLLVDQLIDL
Procedure, shortened: as §1

JAK1 = JAK1 (Homo sapiens, UniProt P23458)
Procedure, shortened: as §1

CDK5 = CDK5 (Homo sapiens, UniProt Q00535)
CDK5, sequence (Q00535 whole entry): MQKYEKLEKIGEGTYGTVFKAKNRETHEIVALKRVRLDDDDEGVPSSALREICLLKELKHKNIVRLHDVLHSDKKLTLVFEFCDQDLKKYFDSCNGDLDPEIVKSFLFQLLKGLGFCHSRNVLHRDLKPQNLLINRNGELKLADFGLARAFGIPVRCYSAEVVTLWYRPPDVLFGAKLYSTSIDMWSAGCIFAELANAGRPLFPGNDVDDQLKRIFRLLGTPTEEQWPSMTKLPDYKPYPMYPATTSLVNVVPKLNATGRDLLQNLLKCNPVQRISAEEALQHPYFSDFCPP
Procedure, shortened: as §1

PKD3 = biological target: T2, PKD3 (Homo sapiens, UniProt O94806)
T2 sequence (O94806 1-890): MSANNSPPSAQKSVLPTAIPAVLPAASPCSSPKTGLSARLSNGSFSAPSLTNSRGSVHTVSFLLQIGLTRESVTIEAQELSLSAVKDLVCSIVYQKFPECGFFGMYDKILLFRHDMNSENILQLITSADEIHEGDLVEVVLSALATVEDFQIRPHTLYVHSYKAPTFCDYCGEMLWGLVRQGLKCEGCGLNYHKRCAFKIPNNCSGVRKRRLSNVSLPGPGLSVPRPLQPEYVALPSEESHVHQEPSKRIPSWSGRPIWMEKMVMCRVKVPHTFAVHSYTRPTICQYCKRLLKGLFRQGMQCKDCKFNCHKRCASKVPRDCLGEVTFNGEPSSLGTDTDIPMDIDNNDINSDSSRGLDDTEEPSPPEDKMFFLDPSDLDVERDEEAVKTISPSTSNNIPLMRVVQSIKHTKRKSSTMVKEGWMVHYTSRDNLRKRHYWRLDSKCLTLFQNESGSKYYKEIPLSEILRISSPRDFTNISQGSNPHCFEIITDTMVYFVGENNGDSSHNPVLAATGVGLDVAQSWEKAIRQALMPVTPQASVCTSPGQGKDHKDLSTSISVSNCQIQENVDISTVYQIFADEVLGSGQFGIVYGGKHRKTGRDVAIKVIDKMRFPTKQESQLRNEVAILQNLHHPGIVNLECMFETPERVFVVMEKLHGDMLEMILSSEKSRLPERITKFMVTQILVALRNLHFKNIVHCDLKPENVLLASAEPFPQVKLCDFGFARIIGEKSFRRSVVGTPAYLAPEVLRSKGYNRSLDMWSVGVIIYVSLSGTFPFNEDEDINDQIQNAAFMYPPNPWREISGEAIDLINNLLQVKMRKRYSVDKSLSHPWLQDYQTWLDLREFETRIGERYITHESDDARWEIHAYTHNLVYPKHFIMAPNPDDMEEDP
Procedure, shortened: as §1

IRE1 = IRE1 (Homo sapiens, UniProt O75460)
IRE1, sequence (O75460 19-977): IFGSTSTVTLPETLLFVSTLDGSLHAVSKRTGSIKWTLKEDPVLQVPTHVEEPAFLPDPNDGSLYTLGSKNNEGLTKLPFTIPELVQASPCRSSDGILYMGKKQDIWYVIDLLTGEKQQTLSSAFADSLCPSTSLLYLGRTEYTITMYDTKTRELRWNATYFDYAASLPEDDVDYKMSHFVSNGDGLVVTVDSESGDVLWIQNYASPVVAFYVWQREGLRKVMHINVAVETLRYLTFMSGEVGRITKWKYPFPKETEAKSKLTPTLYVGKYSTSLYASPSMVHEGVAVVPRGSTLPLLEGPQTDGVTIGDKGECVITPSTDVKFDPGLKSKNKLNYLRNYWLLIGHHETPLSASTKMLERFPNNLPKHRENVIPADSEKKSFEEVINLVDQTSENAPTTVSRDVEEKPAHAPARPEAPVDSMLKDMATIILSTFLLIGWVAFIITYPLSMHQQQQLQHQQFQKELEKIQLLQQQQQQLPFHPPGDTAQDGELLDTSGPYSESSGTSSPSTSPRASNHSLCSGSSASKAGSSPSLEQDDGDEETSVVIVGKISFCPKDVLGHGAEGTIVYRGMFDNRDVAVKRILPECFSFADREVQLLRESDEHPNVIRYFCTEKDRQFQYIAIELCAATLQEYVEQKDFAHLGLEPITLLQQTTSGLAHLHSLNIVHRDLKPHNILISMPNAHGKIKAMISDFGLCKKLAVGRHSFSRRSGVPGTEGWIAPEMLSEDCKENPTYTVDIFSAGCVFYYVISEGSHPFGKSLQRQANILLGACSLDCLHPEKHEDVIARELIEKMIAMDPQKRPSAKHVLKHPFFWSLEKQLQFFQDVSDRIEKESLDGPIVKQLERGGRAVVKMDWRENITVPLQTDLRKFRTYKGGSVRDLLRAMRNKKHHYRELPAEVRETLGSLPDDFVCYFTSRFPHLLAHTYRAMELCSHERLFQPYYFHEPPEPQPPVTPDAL
Procedure, shortened: as §1

RIPK2 = RIPK2 (Homo sapiens, UniProt O43353)
RIPK2, sequence (O43353 whole entry): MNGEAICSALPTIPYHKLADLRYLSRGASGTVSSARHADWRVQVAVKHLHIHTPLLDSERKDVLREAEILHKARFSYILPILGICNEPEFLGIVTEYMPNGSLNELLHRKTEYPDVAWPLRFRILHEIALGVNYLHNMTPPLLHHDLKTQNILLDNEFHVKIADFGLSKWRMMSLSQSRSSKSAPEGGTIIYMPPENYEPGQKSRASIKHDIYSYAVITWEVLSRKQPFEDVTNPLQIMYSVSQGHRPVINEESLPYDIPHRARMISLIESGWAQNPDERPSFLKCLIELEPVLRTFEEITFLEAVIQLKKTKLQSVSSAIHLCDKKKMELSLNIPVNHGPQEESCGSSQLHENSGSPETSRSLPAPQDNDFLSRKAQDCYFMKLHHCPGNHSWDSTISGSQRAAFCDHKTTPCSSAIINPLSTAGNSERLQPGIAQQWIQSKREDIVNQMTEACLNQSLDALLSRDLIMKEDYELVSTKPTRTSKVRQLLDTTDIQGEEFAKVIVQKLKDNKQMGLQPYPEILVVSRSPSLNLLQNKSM
Procedure, shortened: as §1

MARK2 = MARK2 (Homo sapiens, UniProt Q7KZI7)
MARK2, sequence (Q7KZI7 whole entry): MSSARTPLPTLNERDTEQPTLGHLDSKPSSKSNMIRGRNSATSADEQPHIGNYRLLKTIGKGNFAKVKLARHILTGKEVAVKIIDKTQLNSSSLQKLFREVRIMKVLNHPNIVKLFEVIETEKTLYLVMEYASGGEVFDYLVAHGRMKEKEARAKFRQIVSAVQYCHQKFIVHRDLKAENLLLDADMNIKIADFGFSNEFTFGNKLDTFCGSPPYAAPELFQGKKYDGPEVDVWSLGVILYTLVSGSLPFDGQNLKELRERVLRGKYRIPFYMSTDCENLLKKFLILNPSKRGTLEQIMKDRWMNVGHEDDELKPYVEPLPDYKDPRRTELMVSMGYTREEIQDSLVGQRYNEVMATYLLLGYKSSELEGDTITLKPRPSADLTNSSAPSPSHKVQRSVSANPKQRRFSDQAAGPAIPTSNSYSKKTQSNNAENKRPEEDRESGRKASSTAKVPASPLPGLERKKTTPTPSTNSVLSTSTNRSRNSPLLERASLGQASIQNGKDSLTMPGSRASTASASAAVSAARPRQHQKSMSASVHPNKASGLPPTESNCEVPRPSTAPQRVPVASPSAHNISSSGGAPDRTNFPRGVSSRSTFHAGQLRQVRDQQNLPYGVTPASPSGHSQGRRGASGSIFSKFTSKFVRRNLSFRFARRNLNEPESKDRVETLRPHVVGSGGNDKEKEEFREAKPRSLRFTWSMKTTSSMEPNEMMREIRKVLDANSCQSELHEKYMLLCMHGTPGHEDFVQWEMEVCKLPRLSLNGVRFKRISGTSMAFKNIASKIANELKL
Procedure, shortened: as §1

CS(=O)(=O)Nc1ccccc1Nc1nc(Nc2cccc(OCCN)c2)ncc1Cl [CZC31326, N-(2-(2-(3-(2-aminoethoxy)phenylamino)-5-chloropyrimidin-4-ylamino)phenyl)methanesulfonamide]
Competition % (IRAK4): 93.8% | inhibition at 10 µM (FER): 95.3% | inhibition at 10 µM (MAP2K6): 89.2% | inhibition at 10 µM (AAK1): 94.5% | Competition % (JAK1): 95% | inhibition at 10 µM (CDK5): 92.6% | inhibition at 10 µM (PKD3): 95.7% | inhibition at 10 µM (IRE1): 91.8% | inhibition at 10 µM (RIPK2): 92.2% | inhibition at 10 µM (MARK2): 93.7%
